Test system: MV-4-11 cells
Assay: Gene expression microarray analysis (Affymetrix PrimeView) and GSEA
Assay type: cell-based, human
Set-up: RFU PODN (11730768_x_at) / Fold change /veh PODN (11730768_x_at) / RFU LINC00158 (11744669_a_at) / Fold change /veh LINC00158 (11744669_a_at) / RFU DUSP10 (11751237_a_at) / Fold change /veh DUSP10 (11751237_a_at) / RFU ID3 (11757404_x_at) / Fold change /veh ID3 (11757404_x_at) / RFU PLEKHG5 (11737974_s_at) / Fold change /veh PLEKHG5 (11737974_s_at) / RFU LRRC4B (11730491_at) / Fold change /veh LRRC4B (11730491_at) / RFU GIMAP4 (11747438_a_at) / Fold change /veh GIMAP4 (11747438_a_at) / RFU KRT8 (11758183_x_at) / Fold change /veh KRT8 (11758183_x_at) / RFU CNN1 (11734310_a_at) / Fold change /veh CNN1 (11734310_a_at) / RFU VPS37D (11726825_at) / Fold change /veh VPS37D (11726825_at) / RFU C10orf10 (11716522_x_at) / Fold change /veh C10orf10 (11716522_x_at) / RFU KIR2DL2 /// KIR2DL4 /// KIR2DL5A /// KIR2DL5B /// KIR2DS1 /// KIR2DS2 /// KIR2DS3 /// KIR2DS4 /// KIR3DL3 /// KIR3DL3 /// KIR3DS1 (11738374_at) / Fold change /veh KIR2DL2 /// KIR2DL4 /// KIR2DL5A /// KIR2DL5B /// KIR2DS1 /// KIR2DS2 /// KIR2DS3 /// KIR2DS4 /// KIR3DL3 /// KIR3DL3 /// KIR3DS1 (11738374_at) / RFU C1QL1 (11718748_at) / Fold change /veh C1QL1 (11718748_at) / RFU TMPRSS4 (11747572_a_at) / Fold change /veh TMPRSS4 (11747572_a_at) / RFU HAMP (11756126_x_at) / Fold change /veh HAMP (11756126_x_at) / RFU RNFT2 (11725882_a_at) / Fold change /veh RNFT2 (11725882_a_at) / RFU NR4A2 (11747474_a_at) / Fold change /veh NR4A2 (11747474_a_at) / RFU ABCC12 (11746883_a_at) / Fold change /veh ABCC12 (11746883_a_at) / RFU TMEM136 (11760407_x_at) / Fold change /veh TMEM136 (11760407_x_at) / RFU CLDN22 /// WWC2 (11732394_at) / Fold change /veh CLDN22 /// WWC2 (11732394_at) / RFU HLA-DPB1 (11760878_x_at) / Fold change /veh HLA-DPB1 (11760878_x_at) / RFU SPINT1 (11716480_a_at) / Fold change /veh SPINT1 (11716480_a_at) / RFU GAP43 (11754022_s_at) / Fold change /veh GAP43 (11754022_s_at) / RFU A4GNT (11735810_at) / Fold change /veh A4GNT (11735810_at) / RFU PRB3 (11715151_x_at) / Fold change /veh PRB3 (11715151_x_at) / RFU TUBB4B (11761932_at) / Fold change /veh TUBB4B (11761932_at) / RFU CAPN14 (11732068_a_at) / Fold change /veh CAPN14 (11732068_a_at) / RFU TMCC2 (11721928_a_at) / Fold change /veh TMCC2 (11721928_a_at) / RFU IRGQ (11745062_a_at) / Fold change /veh IRGQ (11745062_a_at) / RFU FAM174B (11720279_a_at) / Fold change /veh FAM174B (11720279_a_at) / RFU TMPRSS4 (11748680_a_at) / Fold change /veh TMPRSS4 (11748680_a_at) / RFU FAM212B (11763350_a_at) / Fold change /veh FAM212B (11763350_a_at) / RFU PLEKHG5 (11743358_a_at) / Fold change /veh PLEKHG5 (11743358_a_at) / RFU ZSCAN30 (11745921_a_at) / Fold change /veh ZSCAN30 (11745921_a_at) / RFU CMKLR1 (11741424_a_at) / Fold change /veh CMKLR1 (11741424_a_at) / RFU LOC101060620 /// MAPK8IP1 (11723275_at) / Fold change /veh LOC101060620 /// MAPK8IP1 (11723275_at) / RFU SPTSSB (11747773_x_at) / Fold change /veh SPTSSB (11747773_x_at) / RFU PRSS12 (11739890_at) / Fold change /veh PRSS12 (11739890_at) / RFU BIN1 (11741810_x_at) / Fold change /veh BIN1 (11741810_x_at) / RFU WNT11 (11732464_a_at) / Fold change /veh WNT11 (11732464_a_at) / RFU C10orf10 (11716521_a_at) / Fold change /veh C10orf10 (11716521_a_at) / RFU C5orf56 (11738089_at) / Fold change /veh C5orf56 (11738089_at) / RFU CYB561 (11721691_x_at) / Fold change /veh CYB561 (11721691_x_at) / RFU ANKRD19P (11752326_a_at) / Fold change /veh ANKRD19P (11752326_a_at) / RFU OR2T12 /// OR2T33 /// OR2T8 (11738714_s_at) / Fold change /veh OR2T12 /// OR2T33 /// OR2T8 (11738714_s_at) / RFU VCAN (11748164_a_at) / Fold change /veh VCAN (11748164_a_at) / RFU JSRP1 (11732532_at) / Fold change /veh JSRP1 (11732532_at) / RFU KRTAP10-11 (11738290_x_at) / Fold change /veh KRTAP10-11 (11738290_x_at) / RFU MYO3A (11730013_a_at) / Fold change /veh MYO3A (11730013_a_at) / RFU EBF3 (11725865_a_at) / Fold change /veh EBF3 (11725865_a_at) / RFU CAMK2N1 (11719241_x_at) / Fold change /veh CAMK2N1 (11719241_x_at) / RFU C5orf56 (11738088_a_at) / Fold change /veh C5orf56 (11738088_a_at) / RFU OLFML3 (11715873_a_at) / Fold change /veh OLFML3 (11715873_a_at) / RFU LOC100653217 /// NTM (11731650_a_at) / Fold change /veh LOC100653217 /// NTM (11731650_a_at) / RFU MAPK11 (11762145_a_at) / Fold change /veh MAPK11 (11762145_a_at) / RFU FIZ1 (11724087_x_at) / Fold change /veh FIZ1 (11724087_x_at) / RFU OASL (11726364_x_at) / Fold change /veh OASL (11726364_x_at) / RFU SOX15 (11748057_x_at) / Fold change /veh SOX15 (11748057_x_at) / RFU CD79A (11719716_a_at) / Fold change /veh CD79A (11719716_a_at) / RFU HIST1H1D (11736915_at) / Fold change /veh HIST1H1D (11736915_at) / RFU CASKIN2 (11723855_a_at) / Fold change /veh CASKIN2 (11723855_a_at) / RFU LOC730098 (11760151_x_at) / Fold change /veh LOC730098 (11760151_x_at) / RFU OR4N2 (11742367_at) / Fold change /veh OR4N2 (11742367_at) / RFU PRRT2 (11749266_a_at) / Fold change /veh PRRT2 (11749266_a_at) / RFU SNX32 (11753110_a_at) / Fold change /veh SNX32 (11753110_a_at) / RFU CDHR5 (11726645_a_at) / Fold change /veh CDHR5 (11726645_a_at) / RFU RCAN1 (11760418_a_at) / Fold change /veh RCAN1 (11760418_a_at) / RFU FAM167A (11723789_a_at) / Fold change /veh FAM167A (11723789_a_at) / RFU FAM26E (11764081_at) / Fold change /veh FAM26E (11764081_at) / RFU ISYNA1 (11749810_s_at) / Fold change /veh ISYNA1 (11749810_s_at) / RFU ACY1 (11761880_at) / Fold change /veh ACY1 (11761880_at) / RFU 11764098_at / Fold change /veh 11764098_at / RFU SAMD14 (11745864_x_at) / Fold change /veh SAMD14 (11745864_x_at) / RFU NPB (11741838_a_at) / Fold change /veh NPB (11741838_a_at) / RFU TMPRSS6 (11731388_a_at) / Fold change /veh TMPRSS6 (11731388_a_at) / RFU KRTAP10-2 (11738614_at) / Fold change /veh KRTAP10-2 (11738614_at) / RFU ARHGAP8 /// PRR5-ARHGAP8 (11727945_x_at) / Fold change /veh ARHGAP8 /// PRR5-ARHGAP8 (11727945_x_at) / RFU KRTAP5-7 /// NADSYN1 (11734609_at) / Fold change /veh KRTAP5-7 /// NADSYN1 (11734609_at) / RFU RASL12 (11751679_a_at) / Fold change /veh RASL12 (11751679_a_at) / RFU CDKN2B (11736163_a_at) / Fold change /veh CDKN2B (11736163_a_at) / RFU PRF1 (11729649_at) / Fold change /veh PRF1 (11729649_at) / RFU, ZNF638 /// ZNF638-IT1 / Fold change vs veh, ZNF638 /// ZNF638-IT1 / RFU, PANK3 / Fold change vs veh, PANK3 / RFU, SH3YL1 / Fold change vs veh, SH3YL1 / RFU, ZEB2 / Fold change vs veh, ZEB2 / RFU, NRIP1 / Fold change vs veh, NRIP1 / RFU, PTTG1IP / Fold change vs veh, PTTG1IP / RFU, CAPN2 / Fold change vs veh, CAPN2 / RFU, MED14 / Fold change vs veh, MED14 / RFU, SNORA58 / Fold change vs veh, SNORA58 / RFU, C1orf63 / Fold change vs veh, C1orf63 / RFU, LRRFIP1 / Fold change vs veh, LRRFIP1 / RFU, NDUFAF7 / Fold change vs veh, NDUFAF7 / RFU, SLC12A2 / Fold change vs veh, SLC12A2 / RFU, IBTK / Fold change vs veh, IBTK / RFU, ESF1 / Fold change vs veh, ESF1 / Fold change vs veh, TMEM50B / RFU, TAOK1 / Fold change vs veh, TAOK1 / RFU, ACBD3 / Fold change vs veh, ACBD3 / RFU, TMA16 / Fold change vs veh, TMA16 / RFU, RWDD3 / Fold change vs veh, RWDD3 / RFU, BCAT1 / Fold change vs veh, BCAT1 / RFU, EDEM3 / Fold change vs veh, EDEM3 / RFU, TMEM33 / Fold change vs veh, TMEM33 / RFU, WDR75 / Fold change vs veh, WDR75 / RFU, AHCTF1 / Fold change vs veh, AHCTF1 / RFU, TFRC / Fold change vs veh, TFRC / RFU, ZDHHC17 / Fold change vs veh, ZDHHC17 / RFU, NOM1 / Fold change vs veh, NOM1 / RFU, ARL8B / Fold change vs veh, ARL8B / RFU, ZBTB11 / Fold change vs veh, ZBTB11 / RFU, TAMM41 / Fold change vs veh, TAMM41 / RFU, KIAA1704 /// LOC100996395 / Fold change vs veh, KIAA1704 /// LOC100996395 / RFU, ING1 / Fold change vs veh, ING1 / RFU, TRMT61B / Fold change vs veh, TRMT61B / RFU, FUBP3 / Fold change vs veh, FUBP3 / RFU, TP53 / Fold change vs veh, TP53 / RFU, TNKS2 / Fold change vs veh, TNKS2 / RFU, ZFP14 / Fold change vs veh, ZFP14 / RFU, ACTR2 / Fold change vs veh, ACTR2 / RFU, PPP3R1 / Fold change vs veh, PPP3R1 / RFU, PIK3R1 / Fold change vs veh, PIK3R1 / RFU, HNRNPA1 / Fold change vs veh, HNRNPA1 / RFU, RNF170 / Fold change vs veh, RNF170 / RFU, ZNF28 / Fold change vs veh, ZNF28 / RFU, RNGTT / Fold change vs veh, RNGTT / RFU, OGT / Fold change vs veh, OGT / RFU, BRD1 / Fold change vs veh, BRD1 / RFU, MARS / Fold change vs veh, MARS / RFU, ZNF655 / Fold change vs veh, ZNF655 / RFU, FAHD1 / Fold change vs veh, FAHD1 / RFU, BDP1 / Fold change vs veh, BDP1 / RFU, LRRCC1 / Fold change vs veh, LRRCC1 / RFU, ARID1A / Fold change vs veh, ARID1A / RFU, ZNF146 / Fold change vs veh, ZNF146 / RFU, ZNF330 / Fold change vs veh, ZNF330 / RFU, GPN3 / Fold change vs veh, GPN3 / RFU, C9orf123 / Fold change vs veh, C9orf123 / RFU, N4BP2L2 / Fold change vs veh, N4BP2L2 / RFU, ARFIP1 / Fold change vs veh, ARFIP1 / RFU, FAM179B / Fold change vs veh, FAM179B / RFU, BCL10 / Fold change vs veh, BCL10 / RFU, UHRF1BP1L / Fold change vs veh, UHRF1BP1L / RFU, BET1 / Fold change vs veh, BET1 / RFU, CNOT2 / Fold change vs veh, CNOT2 / RFU, ZNF268 / Fold change vs veh, ZNF268 / Fold change vs veh, ZNF507 / RFU, DGCR2 / Fold change vs veh, DGCR2 / RFU, WDSUB1 / Fold change vs veh, WDSUB1 / Fold change vs veh, HSP90B1 /// MIR3652 / RFU, ADSS / Fold change vs veh, ADSS / RFU, GK / Fold change vs veh, GK / RFU, ZNF148 / Fold change vs veh, ZNF148 / RFU, TAF9 / Fold change vs veh, TAF9 / RFU, SLC1A5 / Fold change vs veh, SLC1A5 / RFU, SLMO2 / Fold change vs veh, SLMO2 / RFU, ABCC4 / Fold change vs veh, ABCC4 / RFU, LOC101060439 /// RAP1B / Fold change vs veh, LOC101060439 /// RAP1B / RFU, RFX7 / Fold change vs veh, RFX7 / RFU, GTPBP10 / Fold change vs veh, GTPBP10 / RFU, CNEP1R1 / Fold change vs veh, CNEP1R1 / RFU, BIVM-ERCC5 /// ERCC5 / Fold change vs veh, BIVM-ERCC5 /// ERCC5 / RFU, ILF3 / Fold change vs veh, ILF3 / RFU 11762660_at / Fold change /veh 11762660_at / RFU VCAN (11757783_s_at) / Fold change /veh VCAN (11757783_s_at) / RFU DDX43 (11728927_at) / Fold change /veh DDX43 (11728927_at) / RFU KRT8 (11758188_x_at) / Fold change /veh KRT8 (11758188_x_at) / RFU NKD1 (11759106_at) / Fold change /veh NKD1 (11759106_at) / RFU SRD5A1 (11742802_a_at) / Fold change /veh SRD5A1 (11742802_a_at) / RFU TPSAB1 /// TPSB2 (11721975_s_at) / Fold change /veh TPSAB1 /// TPSB2 (11721975_s_at) / RFU GSTM3 (11746129_a_at) / Fold change /veh GSTM3 (11746129_a_at) / RFU IL23R (11737362_x_at) / Fold change /veh IL23R (11737362_x_at) / RFU TMEM51 (11727254_a_at) / Fold change /veh TMEM51 (11727254_a_at) / RFU PIWIL2 (11732686_x_at) / Fold change /veh PIWIL2 (11732686_x_at) / RFU ORM1 (11744905_x_at) / Fold change /veh ORM1 (11744905_x_at) / RFU CCDC152 (11743942_at) / Fold change /veh CCDC152 (11743942_at) / RFU ECM1 (11717891_a_at) / Fold change /veh ECM1 (11717891_a_at) / RFU IL23R (11748794_a_at) / Fold change /veh IL23R (11748794_a_at) / RFU TNFAIP8L3 (11732012_x_at) / Fold change /veh TNFAIP8L3 (11732012_x_at) / RFU MBOAT4 (11741988_at) / Fold change /veh MBOAT4 (11741988_at) / RFU 11764193_at / Fold change /veh 11764193_at / RFU TMEM53 (11763286_at) / Fold change /veh TMEM53 (11763286_at) / RFU MAGEB2 (11727129_at) / Fold change /veh MAGEB2 (11727129_at) / RFU TMEM200A (11744735_a_at) / Fold change /veh TMEM200A (11744735_a_at) / RFU CCDC152 (11751479_a_at) / Fold change /veh CCDC152 (11751479_a_at) / RFU FAM211A (11726209_a_at) / Fold change /veh FAM211A (11726209_a_at) / RFU RGS16 (11746705_a_at) / Fold change /veh RGS16 (11746705_a_at) / RFU VCAN (11755009_s_at) / Fold change /veh VCAN (11755009_s_at) / RFU RHOB (11743442_s_at) / Fold change /veh RHOB (11743442_s_at) / RFU RGS16 (11720943_a_at) / Fold change /veh RGS16 (11720943_a_at) / RFU RGS16 (11720944_at) / Fold change /veh RGS16 (11720944_at) / RFU, VPS4B / Fold change vs veh, VPS4B / RFU, CREB1 / Fold change vs veh, CREB1 / RFU, DNAJC13 / Fold change vs veh, DNAJC13 / RFU, GNAQ / Fold change vs veh, GNAQ / RFU, CDK5R1 / Fold change vs veh, CDK5R1 / RFU, ZRANB3 / Fold change vs veh, ZRANB3 / RFU, CUL4A / Fold change vs veh, CUL4A / RFU, CCNY / Fold change vs veh, CCNY / RFU, UFL1 / Fold change vs veh, UFL1 / RFU, COG3 / Fold change vs veh, COG3 / RFU, DIAPH2 / Fold change vs veh, DIAPH2 / RFU, SKA2 / Fold change vs veh, SKA2 / RFU, AFF3 / Fold change vs veh, AFF3 / RFU, LMF1 / Fold change vs veh, LMF1 / RFU, IPO11 / Fold change vs veh, IPO11 / RFU, DFFB / Fold change vs veh, DFFB / RFU, FOXP1 / Fold change vs veh, FOXP1 / RFU, CARD8 / Fold change vs veh, CARD8 / RFU, STRN3 / Fold change vs veh, STRN3 / RFU, ADK / Fold change vs veh, ADK / RFU, RASSF2 / Fold change vs veh, RASSF2 / RFU, WIPF1 / Fold change vs veh, WIPF1 / RFU, LARP1B / Fold change vs veh, LARP1B / RFU, RASA1 / Fold change vs veh, RASA1 / RFU, RB1 / Fold change vs veh, RB1 / RFU, PPFIA1 / Fold change vs veh, PPFIA1 / RFU, MAT2A / Fold change vs veh, MAT2A / RFU, CCT5 / Fold change vs veh, CCT5 / RFU, WDR92 / Fold change vs veh, WDR92 / RFU, CUX1 / Fold change vs veh, CUX1 / RFU, TTC7A / Fold change vs veh, TTC7A / RFU, TMEM135 / Fold change vs veh, TMEM135 / RFU, DEPTOR / Fold change vs veh, DEPTOR / RFU, CPM / Fold change vs veh, CPM / RFU, DNAJB6 / Fold change vs veh, DNAJB6 / RFU, CACNA2D3 / Fold change vs veh, CACNA2D3 / RFU, DTX4 / Fold change vs veh, DTX4 / RFU, TFCP2 / Fold change vs veh, TFCP2 / RFU, GMCL1 /// GMCL1P1 / Fold change vs veh, GMCL1 /// GMCL1P1 / RFU, AEBP2 / Fold change vs veh, AEBP2 / RFU, SNHG1 /// SNORD22 /// SNORD25 /// SNORD26 /// SNORD27 /// SNORD28 /// SNORD29 /// SNORD31 / Fold change vs veh, SNHG1 /// SNORD22 /// SNORD25 /// SNORD26 /// SNORD27 /// SNORD28 /// SNORD29 /// SNORD31 / Fold change (Aza/veh), C12orf56 (ProbeSet 11735607_a_at) / Fold change (ACY-1035/veh), C12orf56 (ProbeSet 11735607_a_at) / Fold change (Aza/veh), FGFR1OP (ProbeSet 11751329_s_at) / Fold change (ACY-1035/veh), FGFR1OP (ProbeSet 11751329_s_at) / Fold change (Aza/veh), VPS36 (ProbeSet 11739960_a_at) / Fold change (ACY-1035/veh), VPS36 (ProbeSet 11739960_a_at) / RFU SYPL1 (11715823_x_at) / Fold change /veh SYPL1 (11715823_x_at) / RFU IGFBP7 (11715501_s_at) / Fold change /veh IGFBP7 (11715501_s_at) / RFU REEP3 (11722064_at) / Fold change /veh REEP3 (11722064_at) / RFU IGLL1 (11728026_x_at) / Fold change /veh IGLL1 (11728026_x_at): dose or concentration left out as unconfirmed
Details: ProbeSet 11745428_a_at; LIST D

SMILES: Nc1ccc(-c2cccs2)cc1NC(=O)c1ccc2c(c1)cc(C1CC1)n2CCN1CCOCC1 [ACY-1035]
- RFU, DFFB: 104.10 RFU
